Like-named read-outs stand apart in the source and are kept apart here.
Experiments:
human MAGL = target: T1, human MAGL (Homo sapiens, UniProt Q99685); assay: MAGL activity assay (AA-HNA fluorogenic substrate); format: biochemical
T1 construct: expressed in transfected cells; host or cells: HEK293T (transient transfection; membrane fraction)
T1 sequence (Q99685 1-303): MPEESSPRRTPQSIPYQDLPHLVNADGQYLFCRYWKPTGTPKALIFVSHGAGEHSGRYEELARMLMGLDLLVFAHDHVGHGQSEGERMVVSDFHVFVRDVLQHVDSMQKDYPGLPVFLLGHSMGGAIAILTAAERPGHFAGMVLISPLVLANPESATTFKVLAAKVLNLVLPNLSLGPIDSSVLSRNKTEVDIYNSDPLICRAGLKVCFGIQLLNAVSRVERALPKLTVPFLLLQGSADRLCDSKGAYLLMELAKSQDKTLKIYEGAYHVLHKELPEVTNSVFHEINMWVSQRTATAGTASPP
Procedure, shortened: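 Membranes from transiently transfected HEK293T cells overexpressing MAGL were preincubated with inhibitor for 30 min in 40 mM HEPES pH 7.5 with 0.1 mg/ml BSA. AA-HNA substrate was then added (10 µl of 200 µM stock), and fluorescence was read every minute for 30 min. Activity was taken from the slope between 5 and 15 min.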

H1975 cells = assay: Cell viability assay (CCK-8), H1975; format: cell-based; conditions: for IC50: Homo sapiens, NCI-H1975, H1975, 48 h, read-out: Antiproliferation activity (pIC50 ± SEM) H1975 (converted)
Method: (§1) Various cancer cell lines, including human colon cancer cell line HT-29, ovarian cell line OVCAR-3, melanoma cell line B16-F10, skin squamous cancer cells A431, cervical cancer cells Hela, lung cancer cell lines A549, H1975, and HCC827, were purchased from American type culture collection (ATCC). A431, H1975, B16-F10, OVCAR-3, HT-29, HCC827, Hela, and A549 cells were cultured in Dulbecco’s modified Eagle medium (DMEM, Gibco) containing 10% fetal bovine serum (FBS, Gibco), penicillin (100 U/ml) and streptomycin (100 μg/ml). All cell lines were maintained in a humidified 37°C incubator with 5% CO2. The medium was refreshed every 2–3 days and the cells were passaged at ∼90% confluence by adding the fresh medium, followed by vigorously pipetting the resuspend cells. Of note, the cells were only washed with PBS when a significant number of dead cells were observed.
(§2) The antiproliferation activity of the compounds against the cancer cell lines was evaluated using Cell Counting Kit-8. Briefly, cells (∼1,000 per well) in 100 µl of culture medium were plated in a 96-well plate for 24 h and 100 µl of medium with different concentrations of the tested compounds was added to each well for 48 h. Then 10 μl of CCK8 solution (#CK04, Dojindo) was added and incubated at 37°C for 2 h. The absorbance of each well was measured with a plate reader (BioTeck) at 450 nm. Cell viability was calculated as follows: cell viability (%) = [(As-Ab)/(Ac-Ab)] × 100. Among them, As represents the absorbance of experimental wells, Ab represents the absorbance of blank wells and Ac represents the absorbance of control wells. The experiments were repeated at least three times and IC50 values were determined by plotting a log(inhibitor) v. s normalized response (Variable slope) dose–response curve generated using GraphPad Prism software.

human ABHD12 = target: T2, human ABHD12 (Homo sapiens, UniProt Q8N2K0); assay: ABHD12 activity by competitive ABPP with FP-TAMRA; format: biochemical; conditions: for potency towards ABHD12: 100 µM; for potency towards ABHD12 / inhibition at 100 µM: competitive ABPP; for inhibition at 100 µM: recombinant human ABHD12, 100 µM compound
T2 construct: expressed in transfected cells; host or cells: HEK293T (transient transfection; membrane fraction)
T2 sequence (Q8N2K0 1-398): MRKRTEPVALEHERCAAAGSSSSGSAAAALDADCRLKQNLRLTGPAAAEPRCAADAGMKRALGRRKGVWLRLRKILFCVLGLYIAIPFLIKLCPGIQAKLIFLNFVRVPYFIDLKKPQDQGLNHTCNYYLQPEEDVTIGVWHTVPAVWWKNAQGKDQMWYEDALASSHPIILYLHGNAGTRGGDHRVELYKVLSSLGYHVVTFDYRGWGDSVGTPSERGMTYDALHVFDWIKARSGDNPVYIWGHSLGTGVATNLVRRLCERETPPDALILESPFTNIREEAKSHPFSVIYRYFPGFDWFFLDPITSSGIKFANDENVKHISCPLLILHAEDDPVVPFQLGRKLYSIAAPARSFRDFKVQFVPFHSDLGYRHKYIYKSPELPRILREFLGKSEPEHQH
Procedure, shortened: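 Membrane fractions of HEK293T cells transiently overexpressing human ABHD12 (1 mg/ml) preincubated with inhibitor or DMSO for 30 min at room temperature, then labelled with FP-TAMRA (250 nM final) for 20 min. Quenched samples resolved by SDS-PAGE and read by in-gel fluorescence scanning (Cy3 settings).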

B16-F10 cells = assay: Cell viability assay (CCK-8), B16-F10; format: cell-based; conditions: for IC50: Mus musculus, read-out: Antiproliferation activity (pIC50 ± SEM) B16-F10 (converted)
Method: as §1, §2

[1] = 100 µM, AA-HNA substrate assay, Supplementary Table 1, read-out: MAGL Inhibition (%)
[2] = 100 µM compound, competitive ABPP with probe FP-TAMRA (250 nM), read-out: ABHD12 Inhibition (%)

| SMILES | activity (human MAGL; [1]) [%] | Antiproliferation activity (pIC50 ± SEM) H1975 (H1975 cells; H1975, 48 h) | activity (human ABHD12; [2]) [%] | Antiproliferation activity (pIC50 ± SEM) B16-F10 (B16-F10 cells; B16-F10, 48 h, CCK-8) | activity at 100 µM (human MAGL; [1]) [%] | IC50 (H1975 cells) [µM] | activity at 100 µM (human ABHD12; [2]) [%] | IC50 (B16-F10 cells; B16-F10, 48 h, CCK-8) [µM] | inhibition at 100 µM (human MAGL; 100 µM, AA-HNA assay) [%] | IC50 (human MAGL; printed in Figure 3B-D, read-out: IC50 (MAGL, AA-HNA assay)) [µM] | IC50 (human MAGL; recombinant human MAGL, AA-HNA assay, average ± SEM, n = 4, read-out: MAGL inhibition (pIC50) (converted)) [µM] | potency towards ABHD12 (human ABHD12) | inhibition at 100 µM (human ABHD12) [%] | inhibition of cell viability of B16-F10 (B16-F10 cells; 20 µM, 48 h) [%] |
| --- | --- | --- | --- | --- | --- | --- | --- | --- | --- | --- | --- | --- | --- | --- |
| Cl.N=c1ccn2c(n1)O[C@H]1[C@H](O)[C@@H](CO)O[C@H]12 [compound 1, Cyclocytidine HCl] | 31.7 | <5 | 70.1 | 5.7 ± 0.2 |  |  |  |  |  |  |  |  |  |  |
| COc1ccc(C(C)=O)c(O)c1 [compound 64, Paeonol] |  |  |  |  | 102 | > 10 | 92.2 | > 10 |  |  |  |  |  |  |
| C[C@H]1COC2=C1C(=O)C(=O)c1c2ccc2c1CCCC2(C)C [compound 23, Cryptotanshinone] |  |  |  |  | 11.2 | 10 | 81.6 | 7.94 | > 80 | 11 | 12.6 | neglectable potency | 18 |  |
| COc1ccc2cc3[n+](cc2c1OC)CCc1cc2c(cc1-3)OCO2 [compound 17, Berberine chloride] |  |  |  |  | 82.8 | > 10 | 86.1 | > 10 |  |  |  |  |  |  |
| O=c1cc(-c2ccc(O)cc2)oc2cc(O)cc(O)c12 [compound 9, Apigenin] |  |  |  |  |  | > 10 | 62.8 | > 10 | > 80 |  |  | neglectable potency | 37 | 54 |

From PMC9465256, “Discovering monoacylglycerol lipase inhibitors by a combination of fluorogenic substrate assay and activity-based protein profiling” (Frontiers in Pharmacology, 2022)
